Source: PMC6143625, “A high throughput screen for next-generation leads targeting malaria parasite transmission” (Nature Communications, 2018)

How the values were obtained:
[1] = system: P. falciparum stage V female gametocytes (female gamete formation); experiment: P. falciparum dual gamete formation assay (Pf DGFA), female readout (Pfs25 expression), 48 h carry-over format; assay type: cell-based, Plasmodium falciparum NF54; details: primary screen, 2 uM, 48 h incubation, single replicate
Procedure: (§1) P. falciparum NF54 strain (originally isolated from an imported malaria case in the Netherlands in the 1980s; BEI Resources, cat. no. MRA-1000) asexual and sexual stages culture was performed as previously described. Gametocyte cultures were initiated at 1% asexual ring stage parasitaemia and 4% haematocrit in 40 ml final volume. To induce gametocyte production, complete culture medium (CM) (RPMI 1640 supplemented with 25 mM HEPES, 50 µg ml^−1 hypoxanthine, 2 g l^−1 NaHCO3 and 10% pooled human male type A+ serum) was replaced daily for 14 days without fresh erythrocyte addition. Human serum was obtained from Interstate Blood Bank, A^+ serotype; no aspirin 2 h before drawing and no antimalarials 2 weeks before drawing. On day 14 after culture induction, gametocyte production was assessed by thin smear and Giemsa staining, and exflagellation accurately counted in a haemocytometer. Gametocyte cultures with >0.2% exflagellation (compared to total erythrocyte cell number) were deemed acceptable for use in the Pf DGFA. Note, all human biological samples were sourced ethically and their research use was in accord with the terms of the informed consents under an IRB/EC approved protocol.
In screening mode, the assay was performed as described in Delves et al.[35] with a mean Z′ factor of 0.56 ± 0.14 (SD) (male) and 0.71 ± 0.17 (SD) (female). Pooled mature gametocyte cultures with the capacity to yield >0.2% exflagellation (of total cells) were diluted in CM to 14 million cells per ml and so that 700,000 cells were dispensed in 50 µl into each well of the warmed 384-well screening plates. […] 92%N2/5% CO2/3% O2 gas mix before gamete formation was triggered by addition of 10 µl per well ookinete medium (RPMI 1640 supplemented with 25 mM HEPES, 50 µg ml^−1 hypoxanthine, 2 g l^−1 NaHCO3, 100 µM xanthurenic acid) containing 0.5 µg ml^−1 anti-Pfs25 clone 4B7 (BEI Resources, cat. no. MRA-315) conjugated to the fluorophore Cy3 (GE Healthcare), and also by cooling the plate at 4 °C for 4 min and then a further 5 min at 28 °C. Exflagellation was recorded immediately by brightfield microscopy using a Nikon Ti-E widefield microscope at ×4 objective, ×1.5 zoom, recording a 10-frame video time-lapse over 2 s for each well. Afterwards, plates were incubated in the dark at 28 °C for a further 24 h to allow female gametes to maximally express Pfs25 on their surface. Female gamete formation was recorded by single-image fluorescence microscopy using the same microscope and magnification as above. Exflagellation and female gamete formation were quantified by specific algorithms designed with the open-source ICY Image Analysis software.
(§2) Assay performance statistics, such as signal to background ratio, Z′ and robust 3×SD activity cut-off were calculated using templates in ActivityBase XE (IDBS, Guilford, Surrey, UK). Hit population analysis and visualisation were conducted using Spotfire DecisionSite (Spotfire, Inc., Somerville, Massachusetts). The pIC50 (−log IC50) values were obtained using the ActivityBase XE nonlinear regression function in the full curve analysis bundle. In screening mode, the Pf DGFA achieved a mean Z′ factor of 0.56 ± 0.14 (SD) (male) and 0.71 ± 0.17 (SD) (female).

[2] = system: P. falciparum stage V male gametocytes (male gamete formation); experiment: P. falciparum dual gamete formation assay (Pf DGFA), male readout (exflagellation), 48 h carry-over format; assay type: cell-based, Plasmodium falciparum NF54; details: primary screen, 2 uM, 48 h incubation, single replicate
Procedure: as §1
In screening mode, the assay was performed as described in Delves et al.[35] with a mean Z′ factor of 0.56 ± 0.14 (SD) (male) and 0.71 ± 0.17 (SD) (female). Pooled mature gametocyte cultures with the capacity to yield >0.2% exflagellation (of total cells) were diluted in CM to 14 million cells per ml and so that 700,000 cells were dispensed in 50 µl into each well of the warmed 384-well screening plates. Parasites were incubated in the plates with compounds for 48 h in a humidified chamber under 92%N2/5% CO2/3% O2 gas mix before gamete formation was triggered by addition of 10 µl per well ookinete medium (RPMI 1640 supplemented with 25 mM HEPES, 50 µg ml^−1 hypoxanthine, 2 g l^−1 NaHCO3, 100 µM xanthurenic acid) containing 0.5 µg ml^−1 anti-Pfs25 clone 4B7 (BEI Resources, cat. no. MRA-315) conjugated to the fluorophore Cy3 (GE Healthcare), and also by cooling the plate at 4 °C for 4 min and then a further 5 min at 28 °C. Exflagellation was recorded immediately by brightfield microscopy using a Nikon Ti-E widefield microscope at ×4 objective, ×1.5 zoom, recording a 10-frame video time-lapse over 2 s for each well. Afterwards, plates were incubated in the dark at 28 °C for a further 24 h to allow female gametes to maximally express Pfs25 on their surface. Female gamete formation was recorded by single-image fluorescence microscopy using the same microscope and magnification as above. Exflagellation and female gamete formation were quantified by specific algorithms designed with the open-source ICY Image Analysis software.
as §2

CN(C)C(=O)CN1CCC(c2c(C(N)=O)sc3ncccc23)C1 (centres unmarked) [DDD01056829]
%Inhibition Female @2uM [1]: <30% | %Inhibition Male @2uM [2]: 34.06%

CN1CC2(CCC(C(=O)N3CCOCC3)CC2)Oc2ccccc2C1=O (centres unmarked) [DDD01056893]
%Inhibition Female @2uM [1]: <30% | %Inhibition Male @2uM [2]: 30.45%

O=C(NC1CC1)[C@H]1CN(Cc2ccccc2)C[C@@H]1C(=O)c1ccccc1 [DDD01056910]
%Inhibition Female @2uM [1]: <30% | %Inhibition Male @2uM [2]: 31.76%

CS(=O)(=O)N1CCCCC1c1ccc(Nc2cnccn2)nc1 (centres unmarked) [DDD01057097]
%Inhibition Female @2uM [1]: <30% | %Inhibition Male @2uM [2]: 34.23%

CN1CCOC(C)(C(=O)Nc2nccs2)C1 (centres unmarked) [DDD01057393]
%Inhibition Female @2uM [1]: <30% | %Inhibition Male @2uM [2]: 32.46%

O=C(Cn1cnc2cc3c(cc21)OCCCO3)NCCc1ccccc1 [DDD01057871]
%Inhibition Female @2uM [1]: 36.66% | %Inhibition Male @2uM [2]: <30%

COc1cccc(CC(=O)N2CCCC2c2nc(=O)c(C)c(C)[nH]2)c1 (centres unmarked) [DDD01059601]
%Inhibition Female @2uM [1]: 33.02% | %Inhibition Male @2uM [2]: <30%

CNc1cncc(C2CCCN2c2cc(C)ncn2)n1 (centres unmarked) [DDD01059901]
%Inhibition Female @2uM [1]: <30% | %Inhibition Male @2uM [2]: 44.44%

CC(=O)N1CCCC(c2ccccn2)C1 (centres unmarked) [DDD01059909]
%Inhibition Female @2uM [1]: <30% | %Inhibition Male @2uM [2]: 30.93%

CN(C)C(=O)CN1CCC(c2cccc(Cc3ccc(F)cc3)n2)CC1 [DDD01060228]
%Inhibition Female @2uM [1]: <30% | %Inhibition Male @2uM [2]: 31.41%

CC(C)CC(=O)N1CCN(Cc2cc(-c3ccncc3)nn2C)CC1 [DDD01060230]
%Inhibition Female @2uM [1]: 78.93% | %Inhibition Male @2uM [2]: <30%

OC1(Cn2ccc3ncccc32)CCN(Cc2cc(F)cc(F)c2)CC1 [DDD01060275]
%Inhibition Female @2uM [1]: <30% | %Inhibition Male @2uM [2]: 30.37%

Cc1cncc(C(=O)N[C@@H]2CC[C@@H](N3CCOCC3)[C@@H]2O)c1 [DDD01060350]
%Inhibition Female @2uM [1]: 35.23% | %Inhibition Male @2uM [2]: <30%

CC(=O)N1CCN([C@@H]2CC[C@@H](NC(=O)c3cc(C)cs3)[C@H]2O)CC1 [DDD01060352]
%Inhibition Female @2uM [1]: 32.18% | %Inhibition Male @2uM [2]: <30%

CC(C)(N)C(=O)N1CCCC1c1cncc(Oc2ccccc2)n1 (centres unmarked) [DDD01060400]
%Inhibition Female @2uM [1]: 49.04% | %Inhibition Male @2uM [2]: <30%

Cc1nc2ccc(C(=O)N3CCn4c(nnc4C4CC4)C3)cc2nc1C [DDD01060815]
%Inhibition Female @2uM [1]: 31.88% | %Inhibition Male @2uM [2]: <30%

O=C(C1CCCCC1)N1CCC(c2[nH]nc3nccnc23)CC1 [DDD01060967]
%Inhibition Female @2uM [1]: 38.46% | %Inhibition Male @2uM [2]: <30%

O=C(c1cn[nH]n1)N1CCCC1C1CCCCC1 (centres unmarked) [DDD01061770]
%Inhibition Female @2uM [1]: 30.76% | %Inhibition Male @2uM [2]: <30%

Cc1noc(C)c1CNC1CCN(c2ccccc2OC(F)F)C1 (centres unmarked) [DDD01061833]
%Inhibition Female @2uM [1]: 39.11% | %Inhibition Male @2uM [2]: <30%

CN(C)c1ccc(CNC(=O)Nc2ccc(S(=O)(=O)C(F)F)cc2)cc1 [DDD01062359]
%Inhibition Female @2uM [1]: 41.45% | %Inhibition Male @2uM [2]: <30%

Cc1ccc(OCCCC(=O)Nc2nonc2C)cc1C [DDD01063175]
%Inhibition Female @2uM [1]: 30.83% | %Inhibition Male @2uM [2]: <30%

Cc1noc(C(C)Nc2ccc3oc(C)nc3c2)n1 (centres unmarked) [DDD01064591]
%Inhibition Female @2uM [1]: 37.30% | %Inhibition Male @2uM [2]: <30%

CC1CN(C(=O)c2cnn(-c3ccccn3)c2C(C)C)CC(C)(C)O1 (centres unmarked) [DDD01064602]
%Inhibition Female @2uM [1]: 40.46% | %Inhibition Male @2uM [2]: <30%

CCOc1nnc(CN2CCN(CCOC)C(C)C2)s1 (centres unmarked) [DDD01065018]
%Inhibition Female @2uM [1]: <30% | %Inhibition Male @2uM [2]: 30.92%

c1cc(NCc2ccsc2)cc(-c2nnc[nH]2)c1 [DDD01065418]
%Inhibition Female @2uM [1]: <30% | %Inhibition Male @2uM [2]: 31.81%

Cc1nc(C)c(C(=O)N2CCc3c(Cl)cccc32)o1 [DDD01065842]
%Inhibition Female @2uM [1]: <30% | %Inhibition Male @2uM [2]: 32.65%

Cc1[nH]c(C2(N)CCCCC2)nc(=O)c1C [DDD01066687]
%Inhibition Female @2uM [1]: 32.19% | %Inhibition Male @2uM [2]: <30%

Cc1ccc(N2CCCC(N(C)Cc3cc(C)on3)C2)nn1 (centres unmarked) [DDD01069945]
%Inhibition Female @2uM [1]: 39.02% | %Inhibition Male @2uM [2]: <30%

COc1cc(CNC(C)c2cccc(Cl)c2)cc(OC)c1OC (centres unmarked) [DDD01069994]
%Inhibition Female @2uM [1]: <30% | %Inhibition Male @2uM [2]: 35.70%

COCc1noc(C2(c3cccc(Cl)c3)CCOCC2)n1 [DDD01070409]
%Inhibition Female @2uM [1]: <30% | %Inhibition Male @2uM [2]: 71.92%

O=C(CNc1cc2c(cc1Cl)OCCO2)NCC(F)(F)F [DDD01070591]
%Inhibition Female @2uM [1]: 39.90% | %Inhibition Male @2uM [2]: <30%

CCS(=O)(=O)NC1CCCN(c2ccc(F)cc2C)C1=O (centres unmarked) [DDD01074148]
%Inhibition Female @2uM [1]: 33.10% | %Inhibition Male @2uM [2]: <30%

COC(=O)C1CCCN1C(=O)c1ccc(-n2nc(C)cc2C)cc1 (centres unmarked) [DDD01075977]
%Inhibition Female @2uM [1]: 33.22% | %Inhibition Male @2uM [2]: <30%

Fc1ccc(-c2nnc(CNC3CCc4ncnn4C3)o2)cc1 (centres unmarked) [DDD01076055]
%Inhibition Female @2uM [1]: 36.38% | %Inhibition Male @2uM [2]: <30%

Cc1noc(CS(=O)(=O)C(C)C(=O)N(C)c2ccccc2)n1 (centres unmarked) [DDD01076606]
%Inhibition Female @2uM [1]: <30% | %Inhibition Male @2uM [2]: 31.49%

CN(C)C(=O)c1ccc(NCCNc2ccc3ccccc3n2)nc1 [DDD01076923]
%Inhibition Female @2uM [1]: <30% | %Inhibition Male @2uM [2]: 31.80%

CN(CC(N)=O)C(=O)C1Cc2cc(Cl)ccc2O1 (centres unmarked) [DDD01077287]
%Inhibition Female @2uM [1]: 46.87% | %Inhibition Male @2uM [2]: <30%

O=S(=O)(NC1CCCCC12OCCO2)c1cc(F)cc(F)c1 (centres unmarked) [DDD01077321]
%Inhibition Female @2uM [1]: 41.54% | %Inhibition Male @2uM [2]: <30%

CC(CCc1ccccc1)N1CCC(C(=O)Nc2cnccn2)CC1 (centres unmarked) [DDD01077885]
%Inhibition Female @2uM [1]: <30% | %Inhibition Male @2uM [2]: 52.25%

CC(C)c1nsc(N2CCc3sccc3C2)n1 [DDD01078291]
%Inhibition Female @2uM [1]: <30% | %Inhibition Male @2uM [2]: 38.07%

CSc1ccc(OCCN2CCNC(=O)CC2)cc1 [DDD01078342]
%Inhibition Female @2uM [1]: 31.10% | %Inhibition Male @2uM [2]: <30%

CC(CNC(=O)c1cnc[nH]1)Oc1ccc(Cl)cc1 (centres unmarked) [DDD01078520]
%Inhibition Female @2uM [1]: 32.98% | %Inhibition Male @2uM [2]: <30%

Cc1cc(C)c(C(=O)N2CCc3c(ncn3CCc3ccccc3)C2)[nH]1 [DDD01078816]
%Inhibition Female @2uM [1]: 31.51% | %Inhibition Male @2uM [2]: <30%

CCS(=O)(=O)c1ccc(N2CCC(NC(C)=O)CC2)cc1 [DDD01080141]
%Inhibition Female @2uM [1]: 30.47% | %Inhibition Male @2uM [2]: <30%

CCN(CC)CC(=O)NCCc1csc(N2CCCC2)n1 [DDD01080188]
%Inhibition Female @2uM [1]: 40.13% | %Inhibition Male @2uM [2]: <30%

Cc1ccc(C2COCCN2C(=O)c2ccc(CN(C)C)cc2)o1 (centres unmarked) [DDD01080189]
%Inhibition Female @2uM [1]: 41.68% | %Inhibition Male @2uM [2]: <30%
